According to patent publication US20230263822A1, “MODULATION OF FACTOR 11 EXPRESSION” (Ionis Pharmaceuticals, Inc., priority 2008, published 2023):
Strand notation (5' to 3'): a small letter for the sugar, then the base; units joined by * are phosphorothioate-linked, units joined directly phosphodiester-linked; [ ] holds rarer units or linkages, { } end groups; capitals alone tell only the bases. e = 2'-O-(2-methoxyethyl) (MOE); [5mC] = 5-methylcytosine; d = 2'-deoxy (DNA)

Key:
blood coagulation = experiment: PT and aPTT assay in cynomolgus monkeys (Example 45); format: in vivo; conditions: platelet poor plasma
Procedure: Groups, each consisting of two male and three female monkeys, were injected subcutaneously with ISIS 416838, ISIS 416850, ISIS 416858, ISIS 416864, or ISIS 417002 in escalating doses. Antisense oligonucleotide was administered to the monkeys at 5 mg/kg three times per a week for week 1; 5 mg/kg twice per week for weeks 2 and 3; 10 mg/kg three times per week for week 4; 10 mg/kg twice per week for weeks 5 and 6; 25 mg/kg three times per week for week 7; and 25 mg/kg twice per week for weeks 8, 9, 10, 11, and 12. One control group, consisting of two male and three female monkeys, was injected subcutaneously with PBS according to the same dosing regimen. An additional experimental group, consisting of two male and three female monkeys, was injected subcutaneously with ISIS 416850 in a chronic, lower dose regimen. Antisense oligonucleotide was administered to the monkeys at 5 mg/kg three times per week for week 1; 5 mg/kg twice per week for week 2 and 3; 10 mg/kg three times per week for week 4; and 10 mg/kg twice per week for weeks 5 to 12. Body weights were measured weekly. Blood samples were collected 14 days and 5 days before the start of treatment and subsequently once per week for Factor 11 protein activity analysis in plasma, fibrinogen measurement, PT and aPTT measurements, bleeding times, and measurement of various hematologic factors. On day 85, the monkeys were euthanized by exsanguination while under deep anesthesia, and organs harvested for further analysis.
Blood samples were collected in tubes containing sodium citrate. PT and aPTT were determined in duplicate with an ACL 9000 coagulation instrument (Instrumentation Laboratory, Italy). The results were interpolated on a standard curve of serial dilutions citrated control monkey plasma tested to give a reported result in percent normal.
Prothrombin Time (PT) and Activated Partial Thromboplastin Time (aPTT) were measured using platelet poor plasma (PPP) from monkeys treated with ISIS oligonucleotides. PT and aPTT values are provided in Tables 116 and 117 and are reported as International Normalized Ratio (INR) values. INR values for PT and aPTT were determined by dividing the PT or aPTT value for each experimental group by the PT or aPTT for the PBS treated group. This ratio was then raised to the power of the International Sensitivity Index (ISI) of the tissue factor used. The ISIS oligonucleotide, ISIS 416850, given with the chronic dose regimen is distinguished from the other oligonucleotides with an asterisk (*).

[1] = Tolerability in CD1 mice: kidney function, BUN (Example 41); conditions: 50 mg/kg s.c. twice per week for 6 weeks, plasma
[2] = day 8, chronic dose regimen (*)
[3] = day 15, chronic dose regimen (*)
[4] = day 15, escalating dose regimen
[5] = day 22, chronic dose regimen (*)
[6] = day 22, escalating dose regimen
[7] = day 29, chronic dose regimen (*)
[8] = day 29, escalating dose regimen
[9] = day 36, chronic dose regimen (*)
[10] = day 36, escalating dose regimen
[11] = day 43, chronic dose regimen (*)
[12] = day 43, escalating dose regimen
[13] = day 50, chronic dose regimen (*)
[14] = day 50, escalating dose regimen
[15] = day 57, escalating dose regimen
[16] = day 64, escalating dose regimen
[17] = day 71, escalating dose regimen
[18] = day 78, escalating dose regimen
[19] = day 85, escalating dose regimen
[20] = day −5, chronic dose regimen (*)
[21] = day −5, escalating dose regimen
[22] = day −14, chronic dose regimen (*)
[23] = day −14, escalating dose regimen

## ISIS 416850: MOE gapmer, nucleobases 1275 to 1318 of SEQ ID NO: 1 (Table 8) (antisense TGCACAGTTTCTGGCAGGCC; MOE gapmer, wing and gap sizes not given here)
Blood coagulation; [2]
  PT ratio (INR): 1.03
  aPTT ratio (INR): 1.12
Blood coagulation; day 8, escalating dose regimen
  PT ratio (INR): 1.00
  aPTT ratio (INR): 1.05
Blood coagulation; [3]
  PT ratio (INR): 1.06
  aPTT ratio (INR): 1.07
Blood coagulation; [4]
  PT ratio (INR): 1.02
  aPTT ratio (INR): 1.05
Blood coagulation; [5]
  PT ratio (INR): 1.06
  aPTT ratio (INR): 1.21
Blood coagulation; [6]
  PT ratio (INR): 1.02
  aPTT ratio (INR): 1.13
Blood coagulation; [7]
  PT ratio (INR): 1.00
  aPTT ratio (INR): 1.26
Blood coagulation; [8]
  PT ratio (INR): 1.03
  aPTT ratio (INR): 1.13
Blood coagulation; [9]
  PT ratio (INR): 1.06
  aPTT ratio (INR): 1.34
Blood coagulation; [10]
  PT ratio (INR): 1.02
  aPTT ratio (INR): 1.26
Blood coagulation; [11]
  PT ratio (INR): 1.02
  aPTT ratio (INR): 1.22
Blood coagulation; [12]
  PT ratio (INR): 1.01
  aPTT ratio (INR): 1.17
Blood coagulation; [13]
  PT ratio (INR): 0.98
  aPTT ratio (INR): 1.35
Blood coagulation; [14]
  PT ratio (INR): 1.02
  aPTT ratio (INR): 1.68
Blood coagulation; [15]
  PT ratio (INR): 1.04
  aPTT ratio (INR): 1.59
Blood coagulation; [16]
  PT ratio (INR): 1.03
  aPTT ratio (INR): 1.64
Blood coagulation; [17]
  PT ratio (INR): 1.03
  aPTT ratio (INR): 1.76
Blood coagulation; [18]
  PT ratio (INR): 1.05
  aPTT ratio (INR): 1.88
Blood coagulation; [19]
  PT ratio (INR): 1.04
  aPTT ratio (INR): 1.99
Blood coagulation; [20]
  PT ratio (INR): 1.00
  aPTT ratio (INR): 1.00
Blood coagulation; [21]
  PT ratio (INR): 1.00
  aPTT ratio (INR): 1.00
Blood coagulation; [22]
  PT ratio (INR): 1.00
  aPTT ratio (INR): 1.00
Blood coagulation; [23]
  PT ratio (INR): 1.00
  aPTT ratio (INR): 1.00
[1]
  BUN: 28 mg/dL

## ISIS 445522: 5-8-5 or 6-8-6 MOE microwalk gapmer (Table 44) (antisense eG*e[5mC]*eA*e[5mC]*eA*dG*dT*dT*dT*d[5mC]*dT*dG*dG*e[5mC]*eA*eG*eG*e[5mC])
[1]
  BUN: 28 mg/dL

## ISIS 445531: 5-8-5 or 6-8-6 MOE microwalk gapmer (Table 44) (antisense eG*eG*e[5mC]*eA*eT*dT*dG*dG*dT*dG*d[5mC]*dA*d[5mC]*eA*eG*eT*eT*eT)
[1]
  BUN: 27 mg/dL
